Experimental data: ChEMBL document CHEMBL4808256, “Benzothiophene derivatives as selective estrogen receptor covalent antagonists: Design, synthesis and anti-ERα activities” (Bioorg Med Chem, 2021)
Calls of active or inactive are those of the source. The rule behind the calls is not given here.

Experiments:
[1] = tested on: Ishikawa; experiment: Antiproliferative activity against ER-positive human Ishikawa cells assessed as inhibition of cell growth incubated for 48 hrs by CCK8 assay; assay type: functional, cell-based
[2] = tested on: MCF7; experiment: Antiproliferative activity against ER-positive human MCF7 cells assessed as inhibition of cell growth incubated for 48 hrs by CCK8 assay; assay type: functional, cell-based; details: MCF7, 48 h
[3] = tested on: Ishikawa; experiment: Induction of cell proliferation in human ishikawa cells at 156 to 5000 nM measured after 2 days; assay type: cell-based; details: 48 h, 5 µM, dose 156-5000 nM, time 2 day
[4] = tested on: MDA-MB-231; experiment: Antiproliferative activity against ER-negative human MDA-MB-231 cells assessed as inhibition of cell growth incubated for 48 hrs by CCK8 assay; assay type: functional, cell-based; details: MDA-MB-231, 48 h
[5] = tested on: MCF7; experiment: Potency index, ratio of raloxifene IC50 to test compound IC50 for antiproliferative activity against ER-positive human MCF7 cells; assay type: functional
[6] = tested on: MCF7; experiment: Induction of cell cycle arrest in human MCF7 cells assessed as accumulation at G0/G1 phase at 5 uM by propidium iodide staining based flow cytometric analysis (reference value: 24.44%); assay type: functional
[7] = tested on: MCF7; experiment: Induction of cell cycle arrest in human MCF7 cells assessed as accumulation at G2/M phase at 5 uM by propidium iodide staining based flow cytometric analysis (reference value: 12.24%); assay type: functional
[8] = tested on: MCF7; experiment: Induction of cell cycle arrest in human MCF7 cells assessed as accumulation at S phase at 10 uM by propidium iodide staining based flow cytometric analysis (reference value: 63.32%); assay type: functional
[9] = tested on: MCF7; experiment: Induction of apoptosis in human MCF7 cells assessed as early apoptotic cells at 1 uM by AnnexinV-FITC/propidium iodide staining based flow cytometry (reference value: 0.8%); assay type: functional
[10] = tested on: MCF7; experiment: Induction of apoptosis in human MCF7 cells assessed as viable cells at 5 uM by AnnexinV-FITC/propidium iodide staining based flow cytometry (reference value: 96.1%); assay type: functional; details: read-out: Activity
[11] = tested on: MCF7; experiment: Induction of apoptosis in human MCF7 cells assessed as early apoptotic cells at 5 uM by AnnexinV-FITC/propidium iodide staining based flow cytometry (reference value: 0.8%); assay type: functional
[12] = tested on: MCF7; experiment: Induction of cell cycle arrest in human MCF7 cells assessed as accumulation at G0/G1 phase at 10 uM by propidium iodide staining based flow cytometric analysis (reference value: 24.44%); assay type: functional
[13] = tested on: MCF7; experiment: Induction of apoptosis in human MCF7 cells assessed as viable cells at 10 uM by AnnexinV-FITC/propidium iodide staining based flow cytometry (reference value: 96.1%); assay type: functional; details: read-out: Activity
[14] = tested on: MCF7; experiment: Induction of cell cycle arrest in human MCF7 cells assessed as accumulation at G2/M phase at 10 uM by propidium iodide staining based flow cytometric analysis (reference value: 12.24%); assay type: functional
[15] = tested on: MCF7; experiment: Induction of apoptosis in human MCF7 cells assessed as viable cells at 1 uM by AnnexinV-FITC/propidium iodide staining based flow cytometry (reference value: 96.1%); assay type: functional; details: read-out: Activity
[16] = tested on: MCF7; experiment: Induction of apoptosis in human MCF7 cells assessed as early apoptotic cells at 10 uM by AnnexinV-FITC/propidium iodide staining based flow cytometry (reference value: 0.8%); assay type: functional
[17] = tested on: MCF7; experiment: Induction of apoptosis in human MCF7 cells assessed as late apoptotic cells at 1 uM by AnnexinV-FITC/propidium iodide staining based flow cytometry (reference value: 0.7%); assay type: functional
[18] = molecular target: T1, Estrogen receptor (Homo sapiens) (UniProt P03372); experiment: Covalent antagonist activity at ERalpha in human MCF7 cells assessed as reduction in E2-stimulated GREB1 gene expression at 1.25 to 10 uM incubated for 24 hrs by RT-PCR analysis; assay type: cell-based; details: filed as antagonist, dose 1.25-10 µM
T1 sequence (whole entry): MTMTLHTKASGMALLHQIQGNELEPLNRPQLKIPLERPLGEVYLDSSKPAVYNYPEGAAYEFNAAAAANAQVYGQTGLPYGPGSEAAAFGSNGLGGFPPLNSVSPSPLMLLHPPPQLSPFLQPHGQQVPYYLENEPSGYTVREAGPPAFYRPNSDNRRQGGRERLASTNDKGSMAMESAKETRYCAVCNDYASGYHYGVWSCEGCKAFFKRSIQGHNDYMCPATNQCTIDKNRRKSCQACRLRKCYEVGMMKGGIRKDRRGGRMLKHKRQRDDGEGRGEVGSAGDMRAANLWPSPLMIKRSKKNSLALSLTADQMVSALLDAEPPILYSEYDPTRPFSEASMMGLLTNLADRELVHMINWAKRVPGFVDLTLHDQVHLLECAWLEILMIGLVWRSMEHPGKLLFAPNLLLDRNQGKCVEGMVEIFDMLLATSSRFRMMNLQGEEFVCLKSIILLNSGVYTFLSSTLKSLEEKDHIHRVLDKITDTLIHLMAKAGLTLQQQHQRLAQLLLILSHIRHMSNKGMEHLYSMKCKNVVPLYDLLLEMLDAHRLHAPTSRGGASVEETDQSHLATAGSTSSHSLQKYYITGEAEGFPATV

[19] = tested on: MCF7; experiment: Induction of apoptosis in human MCF7 cells assessed as late apoptotic cells at 10 uM by AnnexinV-FITC/propidium iodide staining based flow cytometry (reference value: 0.7%); assay type: functional
[20] = tested on: MCF7; experiment: Induction of cell cycle arrest in human MCF7 cells assessed as accumulation at G2/M phase at 1 uM by propidium iodide staining based flow cytometric analysis (reference value: 12.24%); assay type: functional
[21] = molecular target: T1, Estrogen receptor (Homo sapiens); experiment: Covalent antagonist activity at ERalpha in human MCF7 cells assessed as reduction in E2-stimulated TFF1 gene expression at 1.25 to 10 uM incubated for 24 hrs by RT-PCR analysis; assay type: cell-based; details: filed as antagonist, dose 1.25-10 µM
[22] = tested on: MCF7; experiment: Induction of apoptosis in human MCF7 cells assessed as necrotic cells at 5 uM by AnnexinV-FITC/propidium iodide staining based flow cytometry (reference value: 0.4%); assay type: functional
[23] = tested on: MCF7; experiment: Downregulation of ERalpha protein expression in human MCF7 cells at 5 uM incubated for 24 hrs by DAPI staining based immunofluorescence microscopy; assay type: functional, cell-based
[24] = tested on: MCF7; experiment: Induction of apoptosis in human MCF7 cells assessed as necrotic cells at 10 uM by AnnexinV-FITC/propidium iodide staining based flow cytometry (reference value: 0.4%); assay type: functional
[25] = molecular target: T1, Estrogen receptor (Homo sapiens); experiment: Antagonist activity at ERalpha receptor in human ishikawa cells assessed as suppression of E2-stimulated PGR expression at 1.25 to 10 uM by RT-PCR analysis; assay type: cell-based; details: filed as antagonist, dose 1.25-10 µM
[26] = tested on: MCF7; experiment: Induction of cell cycle arrest in human MCF7 cells assessed as accumulation at G0/G1 phase at 1 uM by propidium iodide staining based flow cytometric analysis (reference value: 24.44%); assay type: functional
[27] = tested on: MCF7; experiment: Induction of cell cycle arrest in human MCF7 cells assessed as accumulation at S phase at 1 uM by propidium iodide staining based flow cytometric analysis (reference value: 63.32%); assay type: functional
[28] = tested on: MCF7; experiment: Induction of apoptosis in human MCF7 cells assessed as late apoptotic cells at 5 uM by AnnexinV-FITC/propidium iodide staining based flow cytometry (reference value: 0.7%); assay type: functional
[29] = tested on: MCF7; experiment: Induction of cell cycle arrest in human MCF7 cells assessed as accumulation at S phase at 5 uM by propidium iodide staining based flow cytometric analysis (reference value: 63.32%); assay type: functional
[30] = tested on: MCF7; experiment: Induction of apoptosis in human MCF7 cells assessed as necrotic cells at 1 uM by AnnexinV-FITC/propidium iodide staining based flow cytometry (reference value: 0.4%); assay type: functional

O=C(c1ccc(OC2CN(C/C=C/C(=O)N3CCC3)C2)cc1)c1c(-c2ccc(O)cc2)sc2cc(O)ccc12
IC50 [1]: 25.8 µM
IC50 [2]: 23.3 µM

CC/C(=C(\c1ccc(O)cc1)c1ccc(OCCN(C)C)cc1)c1ccccc1 [AFIMOXIFENE]
Activity [3]: Toxic

CNC(=O)/C=C/CNCCOc1ccc(C(=O)c2c(-c3ccc(O)cc3)sc3cc(O)ccc23)cc1
IC50 [1]: 50.9 µM
IC50 [4]: > 50 µM
IC50 [2]: 13.1 µM

O=C(c1ccc(OC2CN(C/C=C/C(=O)N3CCOCC3)C2)cc1)c1c(-c2ccc(O)cc2)sc2cc(O)ccc12
IC50 [1]: 18.4 µM
Ratio IC50 [5]: 4
IC50 [2]: 5.72 µM

CC/C(=C(\c1ccccc1)c1ccc(OCCN(C)C)cc1)c1ccccc1 [TAMOXIFEN]
IC50 [1]: 14.6 µM

COCCNC(=O)/C=C/CNCCOc1ccc(C(=O)c2c(-c3ccc(O)cc3)sc3cc(O)ccc23)cc1
IC50 [1]: 55.3 µM
IC50 [2]: 42.8 µM

O=C(c1ccc(OC2CN(C/C=C/C(=O)N3CCCCC3)C2)cc1)c1c(-c2ccc(O)cc2)sc2cc(O)ccc12
IC50 [1]: 10.3 µM
Activity [6]: 32.84%
Activity [7]: 12.93%
Activity [8]: 49.43%
Activity [9]: 8.3%
IC50 [4]: > 50 µM
viability at 5 µM [10]: 77.4%
Activity [11]: 11.5%
Activity [12]: 38.85%
viability at 10 µM [13]: 66.3%
Activity [3]: Non-Toxic
Activity [14]: 11.72%
viability at 1 µM [15]: 87.1%
Activity [16]: 16.6%
Activity [17]: 3.4%
inhibition [18]: Active
Activity [19]: 15.8%
Ratio IC50 [5]: 20
Activity [20]: 14.1%
inhibition [21]: Active
Activity [22]: 1.4%
inhibition [23]: Active
Activity [24]: 1.3%
inhibition [25]: Active
Activity [26]: 28.53%
Activity [27]: 57.31%
Activity [28]: 9.7%
Activity [29]: 54.23%
Activity [30]: 1.2%
IC50 [2]: 1.31 µM

C/C=C/C(=O)NCCOc1ccc(C(=O)c2c(-c3ccc(O)cc3)sc3cc(O)ccc23)cc1
IC50 [1]: > 100 µM
IC50 [2]: > 50 µM

C=CC(=O)N1CC(Oc2ccc(C(=O)c3c(-c4ccc(O)cc4)sc4cc(O)ccc34)cc2)C1
IC50 [1]: 16.6 µM
IC50 [2]: 31.3 µM

CNC(=O)/C=C/CN1CC(Oc2ccc(C(=O)c3c(-c4ccc(O)cc4)sc4cc(O)ccc34)cc2)C1
IC50 [1]: 45 µM
IC50 [4]: > 50 µM
IC50 [2]: 11.3 µM

C=C(C)C(=O)NCCOc1ccc(C(=O)c2c(-c3ccc(O)cc3)sc3cc(O)ccc23)cc1
IC50 [1]: 29.2 µM
IC50 [2]: 28.7 µM

O=C(c1ccc(OCCNC/C=C/C(=O)N2CCCC2)cc1)c1c(-c2ccc(O)cc2)sc2cc(O)ccc12
IC50 [1]: 46.1 µM
IC50 [2]: 24.2 µM

O=C(c1ccc(OCCN2CCCCC2)cc1)c1c(-c2ccc(O)cc2)sc2cc(O)ccc12 [RALOXIFENE]
IC50 [1]: 28.4 µM
IC50 [2]: 21.9 µM

O=C(c1ccc(OCCNC/C=C/C(=O)N2CCC2)cc1)c1c(-c2ccc(O)cc2)sc2cc(O)ccc12
IC50 [1]: 29.6 µM
IC50 [2]: 24.2 µM

C=CC(=O)N1CCN(c2ccc(C(=O)c3c(-c4ccc(O)cc4)sc4cc(O)ccc34)cc2)CC1
IC50 [1]: > 100 µM
IC50 [2]: > 50 µM

O=C(c1ccc(OCCNC/C=C/C(=O)N2CCOCC2)cc1)c1c(-c2ccc(O)cc2)sc2cc(O)ccc12
IC50 [1]: 24.9 µM
IC50 [4]: > 50 µM
IC50 [2]: 8.41 µM

C=C(C)C(=O)N1CCN(c2ccc(C(=O)c3c(-c4ccc(O)cc4)sc4cc(O)ccc34)cc2)CC1
IC50 [1]: > 100 µM
IC50 [2]: > 50 µM

CN(C)C(=O)/C=C/CN1CC(Oc2ccc(C(=O)c3c(-c4ccc(O)cc4)sc4cc(O)ccc34)cc2)C1
IC50 [1]: 29.6 µM
IC50 [2]: 29.3 µM

C=C(C)C(=O)N1CC(Oc2ccc(C(=O)c3c(-c4ccc(O)cc4)sc4cc(O)ccc34)cc2)C1
IC50 [1]: 22.6 µM
IC50 [2]: 23.1 µM

CN(C)C(=O)/C=C/CNCCOc1ccc(C(=O)c2c(-c3ccc(O)cc3)sc3cc(O)ccc23)cc1
IC50 [1]: 48.4 µM
IC50 [2]: > 50 µM

C/C=C/C(=O)N1CC(Oc2ccc(C(=O)c3c(-c4ccc(O)cc4)sc4cc(O)ccc34)cc2)C1
IC50 [1]: 22.2 µM
IC50 [2]: 23.7 µM

C=CC(=O)NCCOc1ccc(C(=O)c2c(-c3ccc(O)cc3)sc3cc(O)ccc23)cc1
IC50 [1]: > 100 µM
IC50 [2]: 37.1 µM

O=C(c1ccc(OC2CN(CCCC(=O)N3CCCCC3)C2)cc1)c1c(-c2ccc(O)cc2)sc2cc(O)ccc12
IC50 [1]: > 50 µM
IC50 [4]: > 50 µM
IC50 [2]: > 50 µM

O=C(c1ccc(OCCNC/C=C/C(=O)N2CCCCC2)cc1)c1c(-c2ccc(O)cc2)sc2cc(O)ccc12
IC50 [1]: 6.34 µM
IC50 [2]: 11.5 µM
